Reference: ChEMBL document CHEMBL4507266, “Data for DCP probe BAY-784” (2021)

Key:
[1] = system: Mast/stem cell growth factor receptor Kit (Homo sapiens), P10721 [V559D,V654A]; conditions: Compound concentration 1000.0 nM
[2] = target: Ephrin type-A receptor 2 (Homo sapiens) (UniProt P29317); conditions: Compound concentration 1000.0 nM
[3] = target: Cyclin-dependent kinase 14 (Homo sapiens) (UniProt O94921); conditions: Compound concentration 1000.0 nM
[4] = target: Ephrin type-A receptor 3 (Homo sapiens) (UniProt P29320); conditions: Compound concentration 1000.0 nM
[5] = target: Protein kinase C delta type (Homo sapiens) (UniProt Q05655); conditions: Compound concentration 1000.0 nM
Sequence of Protein kinase C delta type (Homo sapiens) (Q05655 whole entry, looked up): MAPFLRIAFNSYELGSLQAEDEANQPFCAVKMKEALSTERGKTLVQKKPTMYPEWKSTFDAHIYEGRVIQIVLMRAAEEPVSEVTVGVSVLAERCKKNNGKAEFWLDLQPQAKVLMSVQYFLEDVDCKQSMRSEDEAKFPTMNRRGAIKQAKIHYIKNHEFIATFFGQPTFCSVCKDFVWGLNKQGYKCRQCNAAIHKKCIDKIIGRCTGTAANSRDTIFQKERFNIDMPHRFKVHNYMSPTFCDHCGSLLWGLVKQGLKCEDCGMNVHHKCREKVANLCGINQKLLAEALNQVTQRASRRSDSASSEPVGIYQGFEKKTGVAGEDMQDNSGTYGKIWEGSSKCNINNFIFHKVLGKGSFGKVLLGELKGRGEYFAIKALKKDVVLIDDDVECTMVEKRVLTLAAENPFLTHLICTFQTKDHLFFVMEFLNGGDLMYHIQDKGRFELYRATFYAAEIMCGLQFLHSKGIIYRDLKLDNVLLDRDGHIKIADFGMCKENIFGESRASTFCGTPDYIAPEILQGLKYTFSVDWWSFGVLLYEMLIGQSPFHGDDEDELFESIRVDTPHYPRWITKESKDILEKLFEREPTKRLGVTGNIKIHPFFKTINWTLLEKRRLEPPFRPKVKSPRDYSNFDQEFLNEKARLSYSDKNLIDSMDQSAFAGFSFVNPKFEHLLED

[6] = target: Ribosomal protein S6 kinase alpha-5 (Homo sapiens) (UniProt O75582); conditions: Compound concentration 1000.0 nM
[7] = target: Ribosomal protein S6 kinase alpha-4 (Homo sapiens) (UniProt O75676); conditions: Compound concentration 1000.0 nM
[8] = target: Myosin light chain kinase 2, skeletal/cardiac muscle (Homo sapiens) (UniProt Q9H1R3); conditions: Compound concentration 1000.0 nM
[9] = target: Proto-oncogene tyrosine-protein kinase ROS (Homo sapiens) (UniProt P08922); conditions: Compound concentration 1000.0 nM
[10] = target: Cyclin-dependent kinase 4 (Homo sapiens) (UniProt P11802); conditions: Compound concentration 1000.0 nM
[11] = target: Activin receptor type-1B (Homo sapiens) (UniProt P36896); conditions: Compound concentration 1000.0 nM
[12] = target: Serine/threonine-protein kinase BRSK1 (Homo sapiens) (UniProt Q8TDC3); conditions: Compound concentration 1000.0 nM
[13] = target: Serine/threonine-protein kinase PLK3 (Homo sapiens) (UniProt Q9H4B4); conditions: Compound concentration 1000.0 nM
[14] = target: Serine/threonine-protein kinase ICK (Homo sapiens) (UniProt Q9UPZ9); conditions: Compound concentration 1000.0 nM
[15] = target: Cyclin-dependent kinase-like 3 (Homo sapiens) (UniProt Q8IVW4); conditions: Compound concentration 1000.0 nM
Sequence of Cyclin-dependent kinase-like 3 (Homo sapiens) (Q8IVW4 whole entry, looked up): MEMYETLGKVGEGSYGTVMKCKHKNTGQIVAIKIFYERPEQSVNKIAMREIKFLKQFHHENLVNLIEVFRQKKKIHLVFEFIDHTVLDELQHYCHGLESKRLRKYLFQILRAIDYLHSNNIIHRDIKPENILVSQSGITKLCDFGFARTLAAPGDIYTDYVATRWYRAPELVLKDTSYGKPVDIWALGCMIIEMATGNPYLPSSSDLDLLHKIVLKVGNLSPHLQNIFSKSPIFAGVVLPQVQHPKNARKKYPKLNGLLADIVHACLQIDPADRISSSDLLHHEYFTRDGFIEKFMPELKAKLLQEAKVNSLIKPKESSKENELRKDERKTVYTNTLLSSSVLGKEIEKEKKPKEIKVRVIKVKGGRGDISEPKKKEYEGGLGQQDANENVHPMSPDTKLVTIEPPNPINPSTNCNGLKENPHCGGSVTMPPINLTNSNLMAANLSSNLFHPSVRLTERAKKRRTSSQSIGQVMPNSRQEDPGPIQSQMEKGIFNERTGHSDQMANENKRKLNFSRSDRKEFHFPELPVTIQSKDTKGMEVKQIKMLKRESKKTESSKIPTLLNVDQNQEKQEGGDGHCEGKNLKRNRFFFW

[16] = target: Serine/threonine-protein kinase/endoribonuclease IRE1 (Homo sapiens) (UniProt O75460); conditions: Compound concentration 1000.0 nM
[17] = target: Mitogen-activated protein kinase kinase kinase 3 (Homo sapiens) (UniProt Q99759); conditions: Compound concentration 1000.0 nM
[18] = target: Casein kinase I isoform delta (Homo sapiens) (UniProt P48730); conditions: Compound concentration 1000.0 nM
[19] = target: Myosin light chain kinase, smooth muscle (Homo sapiens) (UniProt Q15746); conditions: Compound concentration 1000.0 nM
[20] = target: Tyrosine-protein kinase HCK (Homo sapiens) (UniProt P08631); conditions: Compound concentration 1000.0 nM
[21] = target: Interleukin-1 receptor-associated kinase 4 (Homo sapiens) (UniProt Q9NWZ3); conditions: Compound concentration 1000.0 nM
[22] = target: Homeodomain-interacting protein kinase 1 (Homo sapiens) (UniProt Q86Z02); conditions: Compound concentration 1000.0 nM
[23] = target: RAC-gamma serine/threonine-protein kinase (Homo sapiens) (UniProt Q9Y243); conditions: Compound concentration 1000.0 nM
[24] = target: Ribosomal protein S6 kinase alpha-2 (Homo sapiens) (UniProt Q15349); conditions: Compound concentration 1000.0 nM
[25] = target: Serine/threonine-protein kinase PAK 1 (Homo sapiens) (UniProt Q13153); conditions: Compound concentration 1000.0 nM
[26] = target: Serine/threonine-protein kinase D2 (Homo sapiens) (UniProt Q9BZL6); conditions: Compound concentration 1000.0 nM
Sequence of Serine/threonine-protein kinase D2 (Homo sapiens) (Q9BZL6 whole entry): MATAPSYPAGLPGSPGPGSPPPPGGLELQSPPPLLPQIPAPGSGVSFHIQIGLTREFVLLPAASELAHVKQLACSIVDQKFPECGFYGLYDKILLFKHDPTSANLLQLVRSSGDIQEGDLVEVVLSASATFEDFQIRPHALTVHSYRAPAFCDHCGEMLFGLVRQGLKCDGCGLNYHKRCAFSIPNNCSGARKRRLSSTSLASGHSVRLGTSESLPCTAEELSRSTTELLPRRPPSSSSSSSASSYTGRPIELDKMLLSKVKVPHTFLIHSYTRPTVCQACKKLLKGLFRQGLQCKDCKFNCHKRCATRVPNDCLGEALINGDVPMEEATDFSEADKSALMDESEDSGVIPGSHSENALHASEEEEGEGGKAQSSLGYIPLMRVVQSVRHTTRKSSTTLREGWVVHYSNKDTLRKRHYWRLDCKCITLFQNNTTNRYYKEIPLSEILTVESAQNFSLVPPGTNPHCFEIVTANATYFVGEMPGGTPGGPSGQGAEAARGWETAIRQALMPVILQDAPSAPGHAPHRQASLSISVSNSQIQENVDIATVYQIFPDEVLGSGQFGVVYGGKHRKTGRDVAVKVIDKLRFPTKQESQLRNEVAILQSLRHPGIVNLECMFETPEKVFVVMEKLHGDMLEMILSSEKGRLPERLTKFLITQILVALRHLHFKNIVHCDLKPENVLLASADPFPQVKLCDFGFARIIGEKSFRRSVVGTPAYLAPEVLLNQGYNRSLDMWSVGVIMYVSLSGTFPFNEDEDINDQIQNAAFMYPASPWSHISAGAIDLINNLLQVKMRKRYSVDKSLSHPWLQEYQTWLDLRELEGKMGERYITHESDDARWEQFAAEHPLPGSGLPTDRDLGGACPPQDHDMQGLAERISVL

[27] = target: Serine/threonine-protein kinase TBK1 (Homo sapiens) (UniProt Q9UHD2); conditions: Compound concentration 1000.0 nM
Sequence of Serine/threonine-protein kinase TBK1 (Homo sapiens) (Q9UHD2 whole entry): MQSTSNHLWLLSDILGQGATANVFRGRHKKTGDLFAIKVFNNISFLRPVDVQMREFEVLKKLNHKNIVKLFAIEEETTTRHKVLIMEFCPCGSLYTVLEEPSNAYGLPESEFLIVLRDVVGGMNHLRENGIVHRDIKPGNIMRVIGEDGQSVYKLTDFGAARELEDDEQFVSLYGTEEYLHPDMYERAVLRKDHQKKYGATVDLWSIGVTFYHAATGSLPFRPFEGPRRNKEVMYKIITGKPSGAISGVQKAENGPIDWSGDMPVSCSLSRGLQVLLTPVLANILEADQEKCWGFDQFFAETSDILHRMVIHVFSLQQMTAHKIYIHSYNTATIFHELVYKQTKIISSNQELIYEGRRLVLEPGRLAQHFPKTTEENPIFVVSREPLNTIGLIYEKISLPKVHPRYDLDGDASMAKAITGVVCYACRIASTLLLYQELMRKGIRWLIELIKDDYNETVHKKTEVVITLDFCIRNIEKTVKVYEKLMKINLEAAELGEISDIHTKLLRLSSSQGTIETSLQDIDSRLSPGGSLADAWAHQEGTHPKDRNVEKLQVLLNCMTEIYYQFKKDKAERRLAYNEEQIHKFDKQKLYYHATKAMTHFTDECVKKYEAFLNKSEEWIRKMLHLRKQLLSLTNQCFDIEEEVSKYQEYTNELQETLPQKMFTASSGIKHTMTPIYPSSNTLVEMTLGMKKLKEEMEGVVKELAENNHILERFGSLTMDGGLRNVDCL

[28] = target: Macrophage-stimulating protein receptor (Homo sapiens) (UniProt Q04912); conditions: Compound concentration 1000.0 nM
[29] = target: Mitogen-activated protein kinase 1 (Homo sapiens) (UniProt P28482); conditions: Compound concentration 1000.0 nM
[30] = target: Tyrosine-protein kinase Mer (Homo sapiens) (UniProt Q12866); conditions: Compound concentration 1000.0 nM
[31] = target: Dual specificity tyrosine-phosphorylation-regulated kinase 1B (Homo sapiens) (UniProt Q9Y463); conditions: Compound concentration 1000.0 nM
[32] = target: Myosin light chain kinase (Homo sapiens) (UniProt Q32MK0); conditions: Compound concentration 1000.0 nM
[33] = target: Ephrin type-B receptor 3 (Homo sapiens) (UniProt P54753); conditions: Compound concentration 1000.0 nM
[34] = target: Non-receptor tyrosine-protein kinase TNK1 (Homo sapiens) (UniProt Q13470); conditions: Compound concentration 1000.0 nM
Sequence of Non-receptor tyrosine-protein kinase TNK1 (Homo sapiens) (Q13470 whole entry): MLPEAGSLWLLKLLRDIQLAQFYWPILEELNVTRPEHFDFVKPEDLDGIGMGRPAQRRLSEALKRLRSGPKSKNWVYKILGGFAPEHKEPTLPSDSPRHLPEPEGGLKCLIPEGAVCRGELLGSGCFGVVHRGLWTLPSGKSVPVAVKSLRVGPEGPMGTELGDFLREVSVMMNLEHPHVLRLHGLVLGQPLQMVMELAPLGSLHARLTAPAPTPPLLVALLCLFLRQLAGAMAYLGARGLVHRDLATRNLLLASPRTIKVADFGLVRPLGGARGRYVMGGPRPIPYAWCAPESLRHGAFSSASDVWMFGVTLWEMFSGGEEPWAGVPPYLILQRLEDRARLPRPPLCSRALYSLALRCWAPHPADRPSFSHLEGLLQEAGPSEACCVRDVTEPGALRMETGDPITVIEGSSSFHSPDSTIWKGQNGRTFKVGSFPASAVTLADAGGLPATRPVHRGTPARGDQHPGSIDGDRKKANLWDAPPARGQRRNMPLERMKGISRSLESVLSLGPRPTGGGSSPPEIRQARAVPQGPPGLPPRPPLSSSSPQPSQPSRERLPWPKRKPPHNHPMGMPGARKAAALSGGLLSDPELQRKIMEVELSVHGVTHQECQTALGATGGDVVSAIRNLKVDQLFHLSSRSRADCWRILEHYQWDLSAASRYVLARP

[35] = target: Serine/threonine-protein kinase TAO2 (Homo sapiens) (UniProt Q9UL54); conditions: Compound concentration 1000.0 nM
Sequence of Serine/threonine-protein kinase TAO2 (Homo sapiens) (Q9UL54 whole entry): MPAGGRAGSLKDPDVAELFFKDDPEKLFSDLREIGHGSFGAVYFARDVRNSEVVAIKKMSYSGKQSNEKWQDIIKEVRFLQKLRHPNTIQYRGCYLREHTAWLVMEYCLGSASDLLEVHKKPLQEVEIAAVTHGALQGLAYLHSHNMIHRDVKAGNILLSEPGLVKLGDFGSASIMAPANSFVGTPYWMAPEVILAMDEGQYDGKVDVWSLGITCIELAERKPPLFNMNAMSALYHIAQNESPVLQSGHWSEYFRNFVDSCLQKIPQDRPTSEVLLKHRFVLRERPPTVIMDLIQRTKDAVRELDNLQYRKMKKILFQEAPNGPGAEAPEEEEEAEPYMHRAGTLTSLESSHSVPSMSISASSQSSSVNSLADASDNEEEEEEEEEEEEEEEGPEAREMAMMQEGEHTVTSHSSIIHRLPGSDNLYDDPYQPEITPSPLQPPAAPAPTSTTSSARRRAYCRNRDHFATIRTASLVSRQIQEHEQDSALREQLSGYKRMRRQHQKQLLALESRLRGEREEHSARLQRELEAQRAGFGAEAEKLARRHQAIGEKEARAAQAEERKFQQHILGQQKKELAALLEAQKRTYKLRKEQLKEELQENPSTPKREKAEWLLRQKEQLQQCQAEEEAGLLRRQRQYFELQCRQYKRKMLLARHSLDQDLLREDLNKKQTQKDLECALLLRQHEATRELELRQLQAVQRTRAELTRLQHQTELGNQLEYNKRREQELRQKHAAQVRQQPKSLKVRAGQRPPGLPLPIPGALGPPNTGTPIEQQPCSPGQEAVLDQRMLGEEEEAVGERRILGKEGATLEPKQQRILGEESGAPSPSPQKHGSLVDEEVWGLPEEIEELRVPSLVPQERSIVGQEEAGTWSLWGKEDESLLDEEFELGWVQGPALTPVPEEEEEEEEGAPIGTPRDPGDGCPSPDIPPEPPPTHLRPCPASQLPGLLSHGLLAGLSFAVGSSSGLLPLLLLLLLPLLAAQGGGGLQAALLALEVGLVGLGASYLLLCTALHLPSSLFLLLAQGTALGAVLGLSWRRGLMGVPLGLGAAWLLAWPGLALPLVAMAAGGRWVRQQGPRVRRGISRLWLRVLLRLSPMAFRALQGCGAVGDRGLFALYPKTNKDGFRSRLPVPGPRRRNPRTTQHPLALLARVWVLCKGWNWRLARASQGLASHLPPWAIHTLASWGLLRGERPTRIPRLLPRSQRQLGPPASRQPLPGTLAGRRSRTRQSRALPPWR

[36] = target: Serine/threonine-protein kinase tousled-like 1 (Homo sapiens) (UniProt Q9UKI8); conditions: Compound concentration 1000.0 nM
[37] = target: Vascular endothelial growth factor receptor 3 (Homo sapiens) (UniProt P35916); conditions: Compound concentration 1000.0 nM
[38] = target: Myotonin-protein kinase (Homo sapiens) (UniProt Q09013); conditions: Compound concentration 1000.0 nM
[39] = target: T1, D(4) dopamine receptor (Homo sapiens) (UniProt P21917); conditions: Compound concentration 10.0 uM
T1 sequence (whole entry): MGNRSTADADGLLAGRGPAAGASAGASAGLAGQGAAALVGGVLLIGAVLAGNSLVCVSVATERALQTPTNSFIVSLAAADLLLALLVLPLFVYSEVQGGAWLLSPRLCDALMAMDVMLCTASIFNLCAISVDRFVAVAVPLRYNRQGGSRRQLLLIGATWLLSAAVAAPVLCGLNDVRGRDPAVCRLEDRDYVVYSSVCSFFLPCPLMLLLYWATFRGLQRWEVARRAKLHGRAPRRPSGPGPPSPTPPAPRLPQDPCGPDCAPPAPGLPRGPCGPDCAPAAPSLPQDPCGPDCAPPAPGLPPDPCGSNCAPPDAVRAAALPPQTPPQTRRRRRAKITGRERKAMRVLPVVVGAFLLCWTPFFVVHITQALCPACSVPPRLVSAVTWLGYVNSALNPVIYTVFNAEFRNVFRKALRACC

[40] = target: Alpha-1B adrenergic receptor (Homo sapiens) (UniProt P35368); conditions: Compound concentration 10.0 uM

O=C(NCc1ncc(C(F)(F)F)cc1Cl)c1ccc2c(c1)C1(CCS(=O)(=O)CC1)[C@@H](C1CC1)N2S(=O)(=O)c1ccc(F)cc1 [BAY-786]
inactive: residual activity [1] 68% | residual activity [2] 84% | residual activity [3] 100% | residual activity [4] 67% | residual activity [5] 100% | residual activity [6] 100% | residual activity [7] 84% | residual activity [8] 83% | residual activity [9] 100% | residual activity [10] 88% | residual activity [11] 87% | residual activity [12] 100% | residual activity [13] 82% | residual activity [14] 97% | residual activity [15] 100% | residual activity [16] 65% | residual activity [17] 60% | residual activity [18] 93% | residual activity [19] 74% | residual activity [20] 86% | residual activity [21] 90% | residual activity [22] 70% | residual activity [23] 86% | residual activity [24] 100% | residual activity [25] 80% | residual activity [26] 90% | residual activity [27] 84% | residual activity [28] 100% | residual activity [29] 83% | residual activity [30] 100% | residual activity [31] 100% | residual activity [32] 76% | residual activity [33] 100% | residual activity [34] 88% | residual activity [35] 64% | residual activity [36] 100% | residual activity [37] 100% | residual activity [38] 86% | inhibition [39] -5.22% | inhibition [40] -8.58%

O=C(NCc1ncc(C(F)(F)F)cc1Cl)c1ccc2c(c1)C1(CCS(=O)(=O)CC1)[C@H](C1CC1)N2S(=O)(=O)c1ccc(F)cc1 [BAY-784]
inactive: residual activity [1] 100% | residual activity [2] 100% | residual activity [3] 100% | residual activity [4] 100% | residual activity [5] 100% | residual activity [6] 95% | residual activity [7] 91% | residual activity [8] 100% | residual activity [9] 100% | residual activity [10] 88% | residual activity [11] 94% | residual activity [12] 100% | residual activity [13] 92% | residual activity [14] 100% | residual activity [15] 100% | residual activity [16] 78% | residual activity [17] 74% | residual activity [18] 85% | residual activity [19] 77% | residual activity [20] 69% | residual activity [21] 100% | residual activity [22] 83% | residual activity [23] 100% | residual activity [24] 99% | residual activity [25] 100% | residual activity [26] 98% | residual activity [27] 80% | residual activity [28] 99% | residual activity [29] 81% | residual activity [30] 100% | residual activity [31] 100% | residual activity [32] 79% | residual activity [33] 100% | residual activity [34] 88% | residual activity [35] 81% | residual activity [36] 96% | residual activity [37] 92% | residual activity [38] 93% | inhibition [39] 1.57% | inhibition [40] -4.46%
